Assay results as given in patent publication US8377870B2, “Antimicrobial aqueous solution and its preparation method” (Dentrochemical Co., Ltd., priority 2008, dated 2013).

Experiments:
[1] = system: Pseudomonas aeruginosa, JCM 5961; experiment: growth curve of Pseudomonas by optical density measuring method, liquid culture (½ TS medium); type: cell-based
Description: 100 mg of a sucrose monolaurate (Ryoto Sugar Ester L1695 produced by Mitsubishi-Kagaku Foods Corporation) was dissolved in 1 liter of a sterilized deionized water, the resultant solution was heated to 50° C., 50 mg of monolaurin (Taiyo Kagaku Co., Ltd.) was added thereinto followed by stirring, the dissolution thereof was then confirmed, and the resultant solution was subsequently cooled down to a room temperature. Added into the solution was 50 mg of an ε-polylysine product (50% dextrin powder produced by Chisso Corporation; containing 50% of ε-polylysine bromate and 50% of dextrin), followed by dissolution thereof, to obtain an antimicrobial aqueous solution. This antimicrobial aqueous solution contained 25 μg/ml of the ε-polylysine, 50 μg/ml of the monolaurin, and 100 μg/ml of the sucrose monolaurate. Here, used as the monolaurin was that recrystallized by means of hexane, because a monolaurin of high purity was required. […]

[2] = system: Pseudomonas; experiment: successive 2-fold dilution in test tubes, visual observation of growth of bacteria; type: cell-based; design: key to growth of bacteria, Dilution rate 0 / growth of bacteria, Dilution rate ×2 / growth of bacteria, Dilution rate ×4: visually observing a growth of bacteria, and the observation result is shown by marks of + and −; visually observing a growth of bacteria, and the observation result is shown by marks of + and −
Description: Further, successive 2-fold dilutions […] media of ½ concentration; 5 ml of the applicable diluted solution at each fold was separately poured into dual test tubes, for preparation; while simultaneously preparing diluted solutions of ε-polylysine only in test tubes as a comparative test, in the same manner as the above; and one droplet of an inoculum of Pseudomonas was inoculated into each diluted solution, followed by shaking and culturing at 37° C. for 18 hours. Judgment of each activity was conducted by visually observing a growth of bacteria, and the observation result is shown by marks of + and −.

[3] = acute toxicity; cited from earlier work
[4] = system: bacteria and fungi; experiment: growth of bacteria and fungi with diluted ε-polylysine by itself; type: cell-based; conditions: ε-polylysine by itself diluted down to about 6.25 μg/ml
[5] = 37° C. for 18 hours, start: ε-polylysine only 50 μg/ml, or ε-polylysine 8 μg/ml (fix) + diglycerol monolaurate 50 μg/ml

For ε-polylysine, the “growth of bacteria (growth curve, FIG. 2)” value ([1]; 10 μg/ml of each component named in the sample code, compared with control without additive) was “growth of bacteria to the similar level as a control”, the “lapse of time after which growth of bacteria set in (growth curve, FIG. 1)” value ([1]; sample codes give μg/ml (M monolaurin, PL ε-polylysine, S sucrose monolaurate)) was 12 h and the “growth of bacteria, Dilution rate 0” value [2, 5] was “−”. For the same substance, the “growth of bacteria, Dilution rate ×2” value [2, 5] was “−”, the “growth of bacteria, Dilution rate ×4” value [2, 5] was “−” and the “dilutions in which growth of bacteria was found” value ([2]; ε-polylysine only, start 50 μg/ml, successive 2-fold dilution) was no less than 8 fold. The LD50 [3] was greater than 10.0 g/kg and the “effect on growth of bacteria and fungi” value [4] was “promote growth of bacteria and fungi”.
